Assay results published in patent publication US10954217B2 (priority 2016, dated 2021).

Tests used:
Assay in all cases: biochemical
5-HT2B = 5-HT2B (Homo sapiens (Human), UniProt P41595)
5-HT2C = 5-HT2C (Homo sapiens (Human), UniProt P28335)
Alpha2A = Alpha2A (Homo sapiens (Human), UniProt P08913)
Alpha2B = Alpha2B (Homo sapiens (Human), UniProt P18089)
Alpha2C = Alpha2C (Homo sapiens (Human), UniProt P18825)
H2 = H2 (Homo sapiens (Human), UniProt P25021)
5-HT2A = 5-HT2A (Homo sapiens (Human), UniProt P28223)
Alpha1B = Alpha1B (Homo sapiens (Human), UniProt P35368)
D3 = D3 (Homo sapiens (Human), UniProt P35462)
M2 = M2 (Homo sapiens (Human), UniProt P08172)
M3 = M3 (Homo sapiens (Human), UniProt P20309)
M4 = M4 (Homo sapiens (Human), UniProt P08173)
M5 = M5 (Homo sapiens (Human), UniProt P08912)
Alpha1D = Alpha1D (Homo sapiens (Human), UniProt P25100)
H1 = H1 (Homo sapiens (Human), UniProt P35367)
KOR = KOR (Homo sapiens (Human), UniProt P41145)
D4 = D4 (Homo sapiens (Human), UniProt P21917)

Compound | Ki (5-HT2B) | Ki (5-HT2C) | Ki (Alpha2A) | Ki (Alpha2B) | Ki (Alpha2C) | Ki (H2) | Ki (5-HT2A) | Ki (Alpha1B) | Ki (D3) | Ki (M2) | Ki (M3) | Ki (M4) | Ki (M5) | Ki (Alpha1D) | Ki (H1) | Ki (KOR) | Ki (D4)
Clc1cc(Cl)cc(CN2Cc3ccc(N4CCOCC4)cc3C2)c1 | 702 nM | 1380 nM | 2340 nM | 6800 nM | 4540 nM | 1180 nM | – | – | – | – | – | – | – | – | – | – | –
C=CCN1CCN(c2ccc3c(c2)CN(S(=O)(=O)c2cc(Cl)cc(Cl)c2)C3)CC1 | – | – | – | – | 168 nM | – | 513 nM | 1390 nM | 220 nM | 4200 nM | 710 nM | 1890 nM | 1290 nM | – | – | – | –
CN1CCN(c2ccc3c(c2)CN(S(=O)(=O)c2cc(Cl)cc(Cl)c2)C3)CC1 | – | 833 nM | – | – | – | – | 520 nM | – | 599 nM | 3890 nM | 1960 nM | 3510 nM | 2090 nM | 6470 nM | 487 nM | 8490 nM | –
Clc1cc(Cl)cc(CN2CCc3ccc(N4CCOCC4)cc3C2)c1 | – | – | – | – | – | – | – | – | 3230 nM | – | – | – | – | – | 1330 nM | – | 973 nM
CN1CCN(c2ccc3c(c2)CN(S(=O)(=O)c2cc(Cl)cc(Cl)c2)CC3)CC1 | 206 nM | 1080 nM | – | – | – | – | – | – | 271 nM | 1650 nM | 2020 nM | 2280 nM | 2320 nM | – | 4780 nM | 2560 nM | –
C=CCN1CCN(c2ccc3c(c2)CN(S(=O)(=O)c2cc(Cl)cc(Cl)c2)CC3)CC1 | 397 nM | – | – | – | – | – | – | – | 107 nM | – | 1950 nM | – | 3580 nM | 3500 nM | 241 nM | 2200 nM | –
